Measured values published in ChEMBL document CHEMBL5365534, “Discovery of a Novel Ketohexokinase Inhibitor with Improved Drug Distribution in Target Tissue for the Treatment of Fructose Metabolic Disease” (J Med Chem, 2023).
Activity calls are given as the source filed them. The calls are words filed in the database; no cut-off is given here.

How the values were obtained:
[1] = in vitro; conditions: mouse, liver microsomes
[2] = AUC (0 to t) in Beagle dog at 5 mg/kg, po administered as single dose measured upto 24 hrs by LC-MS/MS analysis; type: ADME, organism-based, Canis lupus familiaris; parameters: dose 5 mg/kg, time < 24 hrs, route po; conditions: in vivo
[3] = in vitro; conditions: human, hepatocytes
[4] = test system: Rattus norvegicus; assay: In vivo inhibition of KHK in 16 hr fasted Sprague-Dawley rat assessed as inhibition of metabolic clearance of fructose at 50 to 150 mg/kg, po pretreated for 1 hr followed fructose induction and measured after 0.5 to 3 hrs by ELISA method; type: functional, organism-based; conditions: dose lower 50.0 mg/kg, dose upper […], time upper 4.0 hrs
[5] = Metabolic stability in monkey hepatocyte assessed as parent compound remaining at 10 uM measured after 4 hrs by LC-MS/MS analysis; type: ADME, cell-based, Macaca mulatta; conditions: rhesus monkey, hepatocytes, read-out: Stability
[6] = Elimination half life in Beagle dog at 5 mg/kg, po administered as single dose measured upto 24 hrs by LC-MS/MS analysis; type: ADME, organism-based, Canis lupus familiaris; conditions: in vivo, read-out: beta t1/2 (converted)
[7] = Drug metabolism in mouse hepatocytes assessed as glucuronidation metabolite at 10 uM measured upto 240 mins by LC-MS/MS analysis; type: ADME, cell-based, Hepatocyte; conditions: 4 h
[8] = MRT (0 to t) in Sprague-Dawley rat at 10 mg/kg, iv administered as single dose measured upto 24 hrs by LC-MS/MS analysis; type: ADME, organism-based; conditions: in vivo
[9] = target: Cytochrome P450 2C9 (Homo sapiens, UniProt P11712); assay: Time dependent inhibition of CYP2C9 in human liver microsomes at 10 uM preincubated for 30 mins followed by substrate addition and measured after 15 mins in presence of NADPH by LC-MS/MS analysis; type: ADME, Microsome
Chain of Cytochrome P450 2C9 (P11712 whole entry): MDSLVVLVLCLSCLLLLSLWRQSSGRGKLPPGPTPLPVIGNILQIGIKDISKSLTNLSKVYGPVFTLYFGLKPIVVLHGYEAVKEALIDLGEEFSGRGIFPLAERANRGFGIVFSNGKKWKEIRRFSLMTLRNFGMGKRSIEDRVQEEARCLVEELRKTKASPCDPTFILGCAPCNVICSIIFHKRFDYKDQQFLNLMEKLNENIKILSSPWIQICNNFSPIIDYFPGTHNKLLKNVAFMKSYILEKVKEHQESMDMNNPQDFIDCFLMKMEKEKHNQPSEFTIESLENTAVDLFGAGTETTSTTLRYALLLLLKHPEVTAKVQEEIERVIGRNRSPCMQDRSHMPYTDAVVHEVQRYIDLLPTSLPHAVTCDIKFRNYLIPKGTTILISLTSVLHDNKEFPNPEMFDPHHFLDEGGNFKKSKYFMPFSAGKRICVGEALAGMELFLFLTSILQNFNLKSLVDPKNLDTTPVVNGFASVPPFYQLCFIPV

[10] = Metabolic stability in rat hepatocyte assessed as parent compound remaining at 10 uM measured after 4 hrs by LC-MS/MS analysis; type: ADME, cell-based; conditions: hepatocytes, read-out: Stability

## C[C@H]1CCN1c1nc(N2CC[C@H](CCC(=O)O)C2)c2c(n1)C(F)(F)CC2
[1]
  microsomal CLint at 2 h, 1 µM: 8 µL/min/mg
[2]
  AUCt: 33400 ng·h/mL
[3]
  hepatocyte CLint at 2 h, 1 µM: < 0.96 µL/min/1e6 cells
[4]
  inhibition: Active
[5]
  remaining at 4 h, 10 µM: 95.8%
[6]
  half-life: 5.21 h
[7]
  Drug metabolism: Metabolite_Notdetected
[8]
  MRT last at 24 h: 6.09 h
[9]
  IC50: > 10 µM
[10]
  remaining at 4 h, 10 µM: 98.2%
